Source: ChEMBL document CHEMBL5537154, “Smart glypican-3-targeting peptide-chlorin e6 conjugates for targeted photodynamic therapy of hepatocellular carcinoma” (Eur J Med Chem, 2024)
Peptide text beside a SMILES is read from it.

What was measured:
HepG2 [1] = assay: Antiproliferative activity against human HepG2 cells under dark condition by CCK8 assay; assay type: functional, cell-based
HepG2 [2] = assay: Antiproliferative activity against human HepG2 cells under 10 J/cm2 light irradiation at 660 nm by CCK8 assay; assay type: functional, cell-based; settings: HepG2, light or radiation study
Huh-7 [3] = assay: Antiproliferative activity against human Huh-7 cells under dark condition by CCK8 assay; assay type: functional, cell-based
Huh-7 [4] = assay: Antiproliferative activity against human Huh-7 cells under 10 J/cm2 light irradiation at 660 nm by CCK8 assay; assay type: functional, cell-based; settings: Huh-7, light or radiation study
MCF7 [5] = assay: Antiproliferative activity against human MCF7 cells under dark condition by CCK8 assay; assay type: functional, cell-based
MCF7 [6] = assay: Antiproliferative activity against human MCF7 cells under 10 J/cm2 light irradiation at 660 nm by CCK8 assay; assay type: functional, cell-based; settings: MCF7, light or radiation study
HeLa [7] = assay: Antiproliferative activity against human HeLa cells under dark condition by CCK8 assay; assay type: functional, cell-based
HeLa [8] = assay: Antiproliferative activity against human HeLa cells under 10 J/cm2 light irradiation at 660 nm by CCK8 assay; assay type: functional, cell-based; settings: light or radiation study
[9] = Antiproliferative activity against human HUVEC cells under dark condition by CCK8 assay; assay type: toxicity, cell-based
[10] = Antiproliferative activity against human HUVEC cells under 10 J/cm2 light irradiation at 660 nm by CCK8 assay; assay type: toxicity, cell-based
[11] = Partition coefficient, logP of compound; assay type: physicochemical; settings: octanol/water
[12] = Photostability of compound under 250 mW/cm2 light irradiation at 660 nm incubated for 10 mins by UV spectrophotometry; assay type: physicochemical; settings: 0.66 µM
[13] = Aggregation property of compound in PBS; assay type: physicochemical; settings: buffer
chymotrypsin = chymotrypsin (Homo sapiens, UniProt P17538+P40313+Q6GPI1+Q99895); assay: Stability of compound assessed as chymotrypsin (unknown origin)-mediated compound degradation in PBS at pH 7.4 by measuring half life; assay type: ADME, protein assay

Compound | IC50 (HepG2 [1]) | IC50 (HepG2 [2]) | IC50 (Huh-7 [3]) | IC50 (Huh-7 [4]) | IC50 (MCF7 [5]) | IC50 (MCF7 [6]) | IC50 (HeLa [7]) | IC50 (HeLa [8]) | IC50 [9] | IC50 [10] | logP [11] | Stability [12] | Activity [13] | half-life (chymotrypsin)
C=Cc1c(C)c2cc3nc(c(CC(=O)O)c4[nH]c(cc5nc(cc1[nH]2)C(C)=C5CC)c(C)c4C(=O)NCCCC(=O)N[C@@H](CC(=O)O)C(=O)N[C@@H](Cc1ccc(O)cc1)C(=O)N[C@@H](CCC(=O)O)C(=O)N[C@@H](CCSC)C(=O)N[C@@H](Cc1cnc[nH]1)C(=O)N[C@@H](CC(C)C)C(=O)N[C@@H](Cc1c[nH]c2ccccc12)C(=O)N[C@@H](Cc1c[nH]c2ccccc12)C(=O)NCC(=O)N[C@H](C(=O)N[C@@H](CCC(=O)O)C(=O)N[C@@H](CC(C)C)C(=O)O)[C@@H](C)O)[C@@H](CCC(=O)O)[C@@H]3C (HELM PEPTIDE1{[C=Cc1c(C)c2cc3nc(c(CC(=O)O)c4[nH]c(cc5nc(cc1[nH]2)C(C)=C5CC)c(C)c4C(=O)[*:2])[C@@H](CCC(=O)O)[C@@H]3C].[O=C(CCCN[*:1])[*:2]].D.Y.E.M.H.L.W.W.G.T.E.L}$$$$V2.0) | > 200 µM | 1.7 µM | > 200 µM | 1.9 µM | > 200 µM | 5.3 µM | > 200 µM | 4.7 µM | > 200 µM | 9.8 µM | 1.5 | Stable | Active | 1.3 h
C=Cc1c(C)c2cc3nc(c(CC(=O)O)c4[nH]c(cc5nc(cc1[nH]2)C(C)=C5CC)c(C)c4C(=O)NCCCC(=O)N[C@@H](CCCCN)C(=O)N[C@@H](CCCCN)C(=O)N[C@@H](CCCCN)C(=O)N[C@@H](CCCNC(=N)N)C(=O)N[C@@H](CC(C)C)C(=O)N[C@@H](CC(N)=O)C(=O)N[C@H](C(=O)NCC(=O)NCC(=O)N[C@H](C(=O)N[C@@H](Cc1ccc(O)cc1)C(=O)N[C@@H](Cc1ccccc1)C(=O)N[C@@H](CC(C)C)C(=O)N[C@H](C(=O)N[C@H](C(=O)N[C@@H](CCCNC(=N)N)C(=O)N[C@@H](CCC(N)=O)C(=O)O)[C@@H](C)O)[C@@H](C)O)[C@@H](C)O)C(C)C)[C@@H](CCC(=O)O)[C@@H]3C (HELM PEPTIDE1{[C=Cc1c(C)c2cc3nc(c(CC(=O)O)c4[nH]c(cc5nc(cc1[nH]2)C(C)=C5CC)c(C)c4C(=O)[*:2])[C@@H](CCC(=O)O)[C@@H]3C].[O=C(CCCN[*:1])[*:2]].K.K.K.R.L.N.V.G.G.T.Y.F.L.T.T.R.Q}$$$$V2.0) | > 200 µM | 0.33 µM | > 200 µM | 0.34 µM | > 200 µM | 0.79 µM | > 200 µM | 0.57 µM | > 200 µM | 0.38 µM | -0.5 | Stable | Not Active | 1.3 h
